Data published in ChEMBL document CHEMBL5344431 (J Med Chem, 2024).
Calls of active or inactive are those of the source. The rule behind the calls is not given here.

Target: T1, Histone deacetylase 8 (Homo sapiens) (UniProt Q9BY41)
T1 sequence (whole entry): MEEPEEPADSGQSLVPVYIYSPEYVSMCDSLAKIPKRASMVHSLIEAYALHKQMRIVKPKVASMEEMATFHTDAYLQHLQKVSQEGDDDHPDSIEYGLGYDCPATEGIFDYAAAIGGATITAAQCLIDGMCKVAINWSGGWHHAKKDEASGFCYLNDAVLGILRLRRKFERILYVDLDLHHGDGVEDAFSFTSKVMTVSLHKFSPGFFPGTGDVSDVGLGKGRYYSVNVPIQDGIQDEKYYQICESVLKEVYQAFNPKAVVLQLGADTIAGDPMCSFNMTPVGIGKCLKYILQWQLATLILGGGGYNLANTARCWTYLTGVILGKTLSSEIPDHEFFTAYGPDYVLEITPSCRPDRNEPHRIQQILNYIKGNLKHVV
Experiment: Inhibition of HDAC8 (unknown origin) assessed as Kinact using Boc-Lys(TFA)-AMC as substrate by fluorescence based method
Settings: not given

SMILES	K
C#Cc1c[n+](C)ccc1NC(=O)CC(=O)N1Cc2ccccc2C1	0.005 s⁻¹
C#Cc1ccc[n+](C)c1	0.003 s⁻¹

Target: T2, Histone deacetylase 8 (Homo sapiens, UniProt Q9BY41)
T2 sequence (Q9BY41 whole entry): T1 sequence (whole entry)
Experiment: Inhibition of HDAC8 (unknown origin) using Boc-Lys(TFA)-AMC as substrate preincubated for 1 hr followed by substrate addition and measured after 15 mins by fluorescence based method
Settings: not given

SMILES	IC50
C#Cc1ccccn1	> 50 µM
N#Cc1ccccn1	> 50 µM
C#Cc1ccn[nH]1	> 50 µM
C=Cc1ccn[nH]1	> 50 µM
Clc1c[nH]cn1	> 50 µM
N#Cc1c[nH]cn1	> 50 µM
Clc1ncc[nH]1	> 50 µM
C#Cc1cnccn1	> 50 µM
Brc1cncnc1	> 50 µM
Clc1ccncc1	> 50 µM
N#Cc1ccncn1	> 50 µM
Brc1cccnc1	> 50 µM
Ic1ncc[nH]1	> 50 µM
Brc1cn[nH]c1	> 50 µM
N#Cc1cnccn1	> 50 µM
Clc1ccncn1	> 50 µM
C[n+]1ccccc1Cl	> 50 µM
Clc1cn[nH]c1	> 50 µM
Brc1ccn[nH]1	> 50 µM
C=Cc1cncnc1	> 50 µM
Ic1ccn[nH]1	> 50 µM

SMILES	IC50
Clc1ccccn1 [2-CHLOROPYRIDINE]	> 50 µM
C#Cc1cncnc1	> 50 µM
Cc1noc(C)c1I	> 50 µM
C[n+]1cncc(C#N)c1	> 50 µM
Brc1nccs1	> 50 µM
N#Cc1ncc[nH]1	> 50 µM
Brc1c[nH]cn1	> 50 µM
C#Cc1cc[n+](C)n1C	> 50 µM
Clc1cccnc1	> 50 µM
C[n+]1ccnc(C#N)c1	> 50 µM
Ic1cn[nH]c1	> 50 µM
Cn1cc(C#N)c[n+]1C	> 50 µM
Ic1cnccn1	> 50 µM
N#Cc1cncnc1	> 50 µM
Clc1ncccn1	> 50 µM
C=Cc1ccncc1	> 50 µM
C=Cc1ccccn1	> 50 µM
Brc1ncc[nH]1	> 50 µM
C#Cc1cn[nH]c1	> 50 µM
Brc1ncccn1	> 50 µM
Brc1ccccn1	> 50 µM

SMILES	IC50
Clc1cncnc1	> 50 µM
Ic1cncnc1	> 50 µM
Brc1cnccn1	> 50 µM
Ic1ncco1	> 50 µM
C#Cc1cccnc1	> 50 µM
N#Cc1cccnc1	> 50 µM
C=Cc1cc[n+](C)n1C	> 50 µM
C[n+]1ccsc1C#N	> 50 µM
N#Cc1nccs1	> 50 µM
C=Cc1cnccn1	> 50 µM
N#Cc1cn[nH]c1	> 50 µM
Clc1cnccn1	> 50 µM
Ic1c[nH]cn1	> 50 µM
C#Cc1ncccn1	> 50 µM
N#Cc1ccncc1 [ISONICOTINONITRILE]	> 50 µM
Brc1ccncc1	> 50 µM
Cn1cc[n+](C)c1C#N	22 µM
C=Cc1cccnc1	> 50 µM
C[n+]1cnccc1Cl	> 50 µM

Second part, the compound after the results:

IC50	SMILES
31 µM	Cn1cc(I)[n+](C)c1
27 µM	C[n+]1ccnc(Br)c1
27 µM	C[n+]1ccnc(I)c1
27 µM	Cn1cc(Br)c[n+]1C
24 µM	Cn1cc(C#N)[n+](C)c1
23 µM	Cn1c(Br)cc[n+]1C
21 µM	C#Cc1cnc[n+](C)c1
20 µM	Cn1cc(Br)[n+](C)c1
19 µM	Cn1c(I)cc[n+]1C
16 µM	Cn1cc(Cl)[n+](C)c1
14 µM	C[n+]1cccc(Cl)c1
14 µM	C[n+]1ccc(C#N)cc1
14 µM	Cn1cc(Cl)c[n+]1C
12.6 µM	C#Cc1ccncc1
12 µM	C[n+]1cccc(C#N)c1
10 µM	C#Cc1cn(C)[n+](C)c1
9 µM	Cn1cc(I)c[n+]1C
8.2 µM	C#Cc1ccc[n+](C)c1
8 µM	C[n+]1cccc(Br)c1
6.5 µM	C[n+]1ccc(Cl)cc1
5.6 µM	Brc1cncs1
5.3 µM	C[n+]1ccccc1C#N
5 µM	C=Cc1cnc[n+](C)c1
5 µM	C=Cc1ccc[n+](C)c1
4.7 µM	C[n+]1cccc(I)c1
4.61 µM	Ic1ccncc1

IC50	SMILES
4.3 µM	C[n+]1cncc(Cl)c1
3.6 µM	C[n+]1cnccc1C#N
3.4 µM	C=Cc1cc[n+](C)cc1
3.1 µM	C[n+]1ccc(Br)cc1
2.9 µM	Cc1o[n+](C)c(C)c1I
2.3 µM	C[n+]1ccnc(Cl)c1
2.24 µM	Ic1ncccn1
2.1 µM	C#Cc1cccc[n+]1C
1.8 µM	Cn1cc[n+](C)c1I
1.3 µM	C[n+]1ccccc1Br
1.2 µM	C[n+]1ccoc1I
1.2 µM	C[n+]1ccsc1Br
0.97 µM	Cn1cc[n+](C)c1Cl
0.74 µM	C#Cc1nccc[n+]1C
0.44 µM	C[n+]1ccccc1I
0.44 µM	C[n+]1ccc(I)cc1
0.43 µM	C[n+]1cccnc1Cl
0.42 µM	C=Cc1c[n+](C)ccn1
0.42 µM	C#Cc1c[n+](C)ccn1
0.33 µM	Cn1cc[n+](C)c1Br
0.3 µM	C[n+]1cncc(Br)c1
0.22 µM	C[n+]1cccnc1Br
0.152 µM	C[n+]1cccnc1I
0.13 µM	C[n+]1csc(Br)c1
0.12 µM	C[n+]1cncc(I)c1
0.079 µM	C#Cc1cc[n+](C)cc1

Target: T1, Histone deacetylase 8 (Homo sapiens)
Experiment: Inhibition of HDAC8 in human OCI-AML3 cells assessed as increase in SMC3 acetylation at 20 to 40 uM incubated for 72 hrs by Western blotting analysis
Type: cell-based
Settings: OCI-AML-3, dose 20-40 µM

SMILES	inhibition
C#Cc1ccc[n+](C)c1	Active

Target: T1, Histone deacetylase 8 (Homo sapiens)
Experiment: Inhibition of HDAC8 in human OCI-AML3 cells assessed as increase in SMC3 acetylation at 10 uM incubated for 72 hrs by Western blotting analysis
Type: cell-based
Settings: OCI-AML-3

SMILES	inhibition
C#Cc1c[n+](C)ccc1NC(=O)CC(=O)N1Cc2ccccc2C1	Active

Target: T1, Histone deacetylase 8 (Homo sapiens)
Experiment: Inhibition of HDAC8 (unknown origin) upto 100 uM using Boc-Lys(TFA)-AMC as substrate preincubated for 1 hr followed by substrate addition and measured after 15 mins by fluorescence based method
Settings: time 75.0 min

SMILES	inhibition
C#Cc1cnccc1NC(=O)CCC(=O)N1Cc2ccccc2C1	inactive
C#Cc1cnccc1NC(=O)CC(=O)N1Cc2ccccc2C1	inactive
C#Cc1cnccc1NC(=O)N1Cc2ccccc2C1	inactive
C#Cc1c[n+](C)ccc1NC(=O)CCC(=O)N1Cc2ccccc2C1	inactive

Target: T1, Histone deacetylase 8 (Homo sapiens)
Experiment: Inhibition of HDAC8 (unknown origin) at 0.0001 to 10000 uM using Boc-Lys(TFA)-AMC as substrate preincubated for 1 hr followed by substrate addition and measured after 15 mins by fluorescence based method
Settings: dose 0.0001-10000 µM, time 75.0 min

SMILES	inhibition
C#Cc1c[n+](C)ccc1NC(=O)N1Cc2ccccc2C1	inactive
C#Cc1c[n+](C)ccc1NC(=O)CCC(=O)N1Cc2ccccc2C1	inactive
